Test results taken from US9302018B2, “Fluorescent probe for imaging lymph nodes” (Eisai R&D Management Co., Ltd., priority 2010, dated 2016).

Key:
[1] = tested on: mouse popliteal lymph node; test: Fluorescent probe anchoring property in mouse popliteal lymph node; type: in vivo
Experimental: In order to investigate the lymph node anchoring property of the fluorescent probe, an ICG-8-containing fluorescent probe dispersion (liposome mean particle diameter: 240 nm, 0.2 mL, phospholipid concentration: 10 mM) or an ICG aqueous solution serving as a control (0.2 mL, 3.2 mM) was injected into the foreleg of mice (FIG. 6A) in the same manner as Example 5. Ten minutes later, the epidermal tissue was peeled off, and the site was irradiated with excitation light (LED light source, <780 nm) and the generated fluorescence (>810 nm) was detected with a monochromatic camera.
To investigate primary lymph node anchoring rate after the passage of a prescribed amount of time, an ICG-8-containing fluorescent probe or ICG aqueous solution was administered to mice in the same manner as described above. […] The p-values were calculated using Fisher's exact test.

[2] = Fluorescence lifetime (TemPro fluorescence lifetime photometer); type: physicochemical; settings: excitation 740 nm, fluorescence 816 nm
Experimental: The fluorescence lifetimes of the fluorescence probes of the present invention were measured. The TemPro fluorescence lifetime photometer (manufactured by Horiba, Ltd.) was used for measurement. Table 3 indicates the values for a chloroform solution containing each near-infrared fluorescent dye at a concentration of 3.2×10^−2 mM and an aqueous solution of ICG (control), and Table 4 indicates values obtained from each of the near-infrared fluorescent dyes incorporated in the liposomes at a concentration of 3.2×10^−2 mM. A 740 nm semiconductor laser was used for the excitation light, and the lifetime spectra obtained at a fluorescence wavelength of 816 nm was analyzed for two components.

[3] = Maximum absorbance wavelength and molar extinction coefficient in ethanol; type: physicochemical; settings: for Molar Extinction Coefficient (ε): in ethanol; for λmax (EtOH): maximum absorbance wavelength in ethanol
[4] = Fluorescence detectability of fluorescent probe in vitro (brightness score, Image J); type: physicochemical; settings: excitation <780 nm, fluorescence >810 nm
Experimental: Near-infrared fluorescence intensity was measured for the fluorescent dye-containing liposomes prepared in the manner described above with an aqueous solution of ICG serving as a control. 100 μL of liposome suspension containing a dye of a predetermined concentration or the ICG aqueous solution were added to a 96-well plate and irradiated with excitation light (LED light source, <780 nm) to detect the generated fluorescence (>810 nm). Brightness was evaluated using Image J image processing software.
In the table, values indicate the brightness score as determined with the Image J software (maximum value: 255), with the values shown in parentheses indicate the standard deviation.

[5] = chloroform solution, 3.2×10^−2 mM

CC1(C)C(/C=C/C=C/C=C/C=C2\N(CCCCS(=O)(=O)[O-])c3ccc4ccccc4c3C2(C)C)=[N+](CCCCS(=O)(=O)[O-])c2ccc3ccccc3c21.[Na+] [ICG, Indocyanine green]
No. of mice in which fluorescence was observed in primary lymph node only/total no. of mice in experiment ([1]; 1 h elapsed from administration): 0/4
No. of mice in which fluorescence was observed in primary lymph node only/total no. of mice in experiment ([1]; 3 h elapsed from administration): 2/5
No. of mice in which fluorescence was observed in primary lymph node only/total no. of mice in experiment ([1]; 6 h elapsed from administration): 0/4
No. of mice in which fluorescence was observed in primary lymph node only/total no. of mice in experiment ([1]; 24 h elapsed from administration): 0/3
Lymph nodes from which fluorescence was detected ([1]; mice, 0.2 mL into foreleg, ten minutes later, probe liposome mean particle diameter 240 nm, ICG aqueous solution 3.2 mM): emitted at the first popliteal lymph node from the foreleg as well as from the second external iliac lymph node
Fluorescence lifetime, first component (ns) ([2]; aqueous solution (control)): 0.01~0.15 ns
Molar Extinction Coefficient (ε) [3]: 1.47 × 10^5
λmax (EtOH) [3]: 787 nm
brightness score (Image J, maximum value: 255), SD in parentheses ([4]; dye concentration 3.2 mM): 27(5)
brightness score (Image J, maximum value: 255), SD in parentheses ([4]; dye concentration 3.2 × 10−1 mM): 38(6)
brightness score (Image J, maximum value: 255), SD in parentheses ([4]; dye concentration 3.2 × 10−2 mM): 98(5)
brightness score (Image J, maximum value: 255), SD in parentheses ([4]; dye concentration 3.2 × 10−3 mM): 118(10)
brightness score (Image J, maximum value: 255), SD in parentheses ([4]; dye concentration 3.2 × 10−4 mM): 61(7)

CCCCCCCCN1/C(=C/C=C/C=C/C=C/C2=[N+](CCCCS(=O)(=O)[O-])c3ccc4ccccc4c3C2(C)C)C(C)(C)c2c1ccc1ccccc21 [ICG-8-C8, 4(2-((1E,3E,5E,7E)-7-(1,1-dimethyl-3-octyl-1H-benzo[e]indol-2(3H)-ylidene)hepta-1,3,5-trienyl)-1,1-dimethyl-1H-benzo[e]indolium-3-yl)butane-1-sulfonic acid]
Molar Extinction Coefficient (ε) [3]: 2.63×10^5
λmax (EtOH) [3]: 788 nm

CCCCCCCCCCN1/C(=C/C=C/C=C/C=C/C2=[N+](CCCCS(=O)(=O)[O-])c3ccc4ccccc4c3C2(C)C)C(C)(C)c2c1ccc1ccccc21 [ICG-8-C10, 4(2-((1E,3E,5E,7E)-7-(1,1-dimethyl-3-decyl-1H-benzo[e]indol-2(3H)-ylidene)hepta-1,3,5-trienyl)-1,1-dimethyl-1H-benzo[e]indolium-3-yl)butane-1-sulfonic acid]
Fluorescence lifetime, first component (%) [2, 5]: 67%
Fluorescence lifetime, first component (ns) [2, 5]: 1.27 ns
Fluorescence lifetime, second component (%) [2, 5]: 33%
Fluorescence lifetime, second component (ns) [2, 5]: 0.41 ns
Molar Extinction Coefficient (ε) [3]: 2.50 × 10^5
λmax (EtOH) [3]: 788 nm

CCCCCCN(CCCCCC)c1ccc(OC2=C(/C=C/C3=[N+](CCCCS(=O)(=O)[O-])c4ccc5ccccc5c4C3(C)C)CCC/C2=C\C=C2\N(CCCCS(=O)(=O)[O-])c3ccc4ccccc4c3C2(C)C)cc1.[Na+] [ICG-9, sodium [4-(2-((E)-2-((E)-2-(4-(dihexyamino)phenoxy)-3-((E)-2-(1,1-dimethyl-3-(4-sulfonatebutyl)-1H-benzo[e]indol-2(3H)-ylidene)ethylidene)cyclohexenyl)vinyl)-1,1-dimethyl-1H-benzo[e]indolium-3-yl)butane-1-sulfonate]]
Molar Extinction Coefficient (ε) [3]: 1.24×10^5
λmax (EtOH) [3]: 810 nm

CCCCN1/C(=C/C=C/C=C/C=C/C2=[N+](CCCCS(=O)(=O)[O-])c3ccc4ccccc4c3C2(C)C)C(C)(C)c2c1ccc1ccccc21 [ICG-8-C4, 4(2-((1E,3E,5E,7E)-7-(1,1-dimethyl-3-butyl-1H-benzo[e]indol-2(3H)-ylidene)hepta-1,3,5-trienyl)-1,1-dimethyl-1H-benzo[e]indolium-3-yl)butane-1-sulfonic acid]
Molar Extinction Coefficient (ε) [3]: 2.52×10^5
λmax (EtOH) [3]: 787 nm

CC1(C)C(/C=C/C=C/C=C/C=C2/N(CCC(=O)O)c3ccc4ccccc4c3C2(C)C)=[N+](CCCCS(=O)(=O)[O-])c2ccc3ccccc3c21 [ICG-6, 4-(2-((1E,3E,5E,7E)-7-(3-(2-carboxyethyl)-1,1-dimethyl-1H-benzo[e]indol-2-(3H)-ylidene)hepta-1,3,5-trienyl)-1,1-dimethyl-1H-benzo[e]indolium-3-yl)butane-1-sulfonic acid]
Molar Extinction Coefficient (ε) [3]: 1.86×10^5
λmax (EtOH) [3]: 786 nm

CCCCCCN1/C(=C/C=C/C=C/C=C/C2=[N+](CCCCS(=O)(=O)[O-])c3ccc4ccccc4c3C2(C)C)C(C)(C)c2c1ccc1ccccc21 [ICG-8-C6, 4(2-((1E,3E,5E,7E)-7-(1,1-dimethyl-3-hexyl-1H-benzo[e]indol-2(3H)-ylidene)hepta-1,3,5-trienyl)-1,1-dimethyl-1H-benzo[e]indolium-3-yl)butane-1-sulfonic acid]
Fluorescence lifetime, first component (%) [2, 5]: 69%
Fluorescence lifetime, first component (ns) [2, 5]: 1.25 ns
Fluorescence lifetime, second component (%) [2, 5]: 31%
Fluorescence lifetime, second component (ns) [2, 5]: 0.31 ns
Molar Extinction Coefficient (ε) [3]: 2.34×10^5
λmax (EtOH) [3]: 787 nm
